This is an account of results in patent US12685735B2 (Foghorn Therapeutics Inc., priority 2020, dated 2026).

Molecules are shown by their SMILES.

One experiment addresses BRM (Homo sapiens, UniProt P51531). Kind of experiment: ATPase catalytic activity assay of BRM (ADP-Glo). The class given is biochemical. As to conditions: for IC50: read-out: BRM IC50 (μM)*. The procedure, abridged: (§1)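 Two room-temperature incubations follow the reaction: 40 min to eliminate unused ATP, then 60 min to turn ADP into ATP driving luciferase light output. Activity is read as luminescence proportional to ADP formed.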
(ADP-Glo turns the ADP formed in a reaction into a luminescent signal.)

In the next experiment the target is BRG-1 (Homo sapiens, UniProt P51532). Kind of experiment: ATPase catalytic activity assay of BRG-1 (ADP-Glo). Type of experiment: biochemical. As to conditions: ATPase catalytic activity, ADP-Glo; for IC50: read-out: BRG1 IC50 (μM)*; for Emax: read-out: BRG1 Max % Inhibition. The procedure, abridged: as §1
Sequence of BRG-1 (P51532 whole entry): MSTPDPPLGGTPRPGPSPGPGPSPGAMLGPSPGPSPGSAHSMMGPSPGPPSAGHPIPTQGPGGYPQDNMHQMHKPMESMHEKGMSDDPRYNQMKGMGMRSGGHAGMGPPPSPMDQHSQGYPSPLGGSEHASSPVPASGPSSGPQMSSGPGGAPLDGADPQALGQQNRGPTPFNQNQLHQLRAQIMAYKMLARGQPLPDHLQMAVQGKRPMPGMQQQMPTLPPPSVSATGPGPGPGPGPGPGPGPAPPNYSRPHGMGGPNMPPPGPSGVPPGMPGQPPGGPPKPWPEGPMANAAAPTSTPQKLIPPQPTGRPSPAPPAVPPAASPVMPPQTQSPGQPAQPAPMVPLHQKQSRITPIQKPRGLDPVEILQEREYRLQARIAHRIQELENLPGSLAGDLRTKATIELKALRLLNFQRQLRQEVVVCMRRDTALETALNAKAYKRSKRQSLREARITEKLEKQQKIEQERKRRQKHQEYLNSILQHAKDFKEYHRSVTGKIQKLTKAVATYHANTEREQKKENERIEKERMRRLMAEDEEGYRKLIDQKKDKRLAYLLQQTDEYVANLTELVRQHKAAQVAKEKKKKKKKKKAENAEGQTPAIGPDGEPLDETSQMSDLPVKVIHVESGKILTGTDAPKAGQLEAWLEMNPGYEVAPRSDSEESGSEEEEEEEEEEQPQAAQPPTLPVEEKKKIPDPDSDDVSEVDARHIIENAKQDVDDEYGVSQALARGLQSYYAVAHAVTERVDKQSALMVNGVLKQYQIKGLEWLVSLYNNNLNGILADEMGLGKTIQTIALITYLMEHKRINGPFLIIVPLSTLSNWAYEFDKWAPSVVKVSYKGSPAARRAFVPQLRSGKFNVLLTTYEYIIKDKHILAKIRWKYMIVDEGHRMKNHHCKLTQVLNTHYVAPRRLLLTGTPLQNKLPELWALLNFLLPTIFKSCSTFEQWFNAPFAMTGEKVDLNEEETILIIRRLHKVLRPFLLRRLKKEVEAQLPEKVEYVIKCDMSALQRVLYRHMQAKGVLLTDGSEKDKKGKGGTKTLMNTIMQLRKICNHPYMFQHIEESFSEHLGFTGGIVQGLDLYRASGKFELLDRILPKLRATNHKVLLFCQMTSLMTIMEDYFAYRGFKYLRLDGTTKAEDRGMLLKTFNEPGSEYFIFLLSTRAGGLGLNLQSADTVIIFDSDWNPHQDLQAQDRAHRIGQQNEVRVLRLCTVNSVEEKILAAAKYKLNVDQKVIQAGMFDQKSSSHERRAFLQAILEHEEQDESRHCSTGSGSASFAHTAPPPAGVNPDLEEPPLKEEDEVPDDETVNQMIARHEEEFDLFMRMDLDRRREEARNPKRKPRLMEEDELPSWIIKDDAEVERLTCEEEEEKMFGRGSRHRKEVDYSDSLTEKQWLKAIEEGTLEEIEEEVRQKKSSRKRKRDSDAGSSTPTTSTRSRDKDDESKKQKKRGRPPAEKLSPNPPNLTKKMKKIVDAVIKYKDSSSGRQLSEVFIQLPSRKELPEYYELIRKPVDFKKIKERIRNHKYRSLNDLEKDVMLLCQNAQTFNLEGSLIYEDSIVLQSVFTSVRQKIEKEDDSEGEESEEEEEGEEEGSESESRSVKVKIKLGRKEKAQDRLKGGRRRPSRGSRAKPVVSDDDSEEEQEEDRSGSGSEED

Sequence of BRM (P51531 whole entry): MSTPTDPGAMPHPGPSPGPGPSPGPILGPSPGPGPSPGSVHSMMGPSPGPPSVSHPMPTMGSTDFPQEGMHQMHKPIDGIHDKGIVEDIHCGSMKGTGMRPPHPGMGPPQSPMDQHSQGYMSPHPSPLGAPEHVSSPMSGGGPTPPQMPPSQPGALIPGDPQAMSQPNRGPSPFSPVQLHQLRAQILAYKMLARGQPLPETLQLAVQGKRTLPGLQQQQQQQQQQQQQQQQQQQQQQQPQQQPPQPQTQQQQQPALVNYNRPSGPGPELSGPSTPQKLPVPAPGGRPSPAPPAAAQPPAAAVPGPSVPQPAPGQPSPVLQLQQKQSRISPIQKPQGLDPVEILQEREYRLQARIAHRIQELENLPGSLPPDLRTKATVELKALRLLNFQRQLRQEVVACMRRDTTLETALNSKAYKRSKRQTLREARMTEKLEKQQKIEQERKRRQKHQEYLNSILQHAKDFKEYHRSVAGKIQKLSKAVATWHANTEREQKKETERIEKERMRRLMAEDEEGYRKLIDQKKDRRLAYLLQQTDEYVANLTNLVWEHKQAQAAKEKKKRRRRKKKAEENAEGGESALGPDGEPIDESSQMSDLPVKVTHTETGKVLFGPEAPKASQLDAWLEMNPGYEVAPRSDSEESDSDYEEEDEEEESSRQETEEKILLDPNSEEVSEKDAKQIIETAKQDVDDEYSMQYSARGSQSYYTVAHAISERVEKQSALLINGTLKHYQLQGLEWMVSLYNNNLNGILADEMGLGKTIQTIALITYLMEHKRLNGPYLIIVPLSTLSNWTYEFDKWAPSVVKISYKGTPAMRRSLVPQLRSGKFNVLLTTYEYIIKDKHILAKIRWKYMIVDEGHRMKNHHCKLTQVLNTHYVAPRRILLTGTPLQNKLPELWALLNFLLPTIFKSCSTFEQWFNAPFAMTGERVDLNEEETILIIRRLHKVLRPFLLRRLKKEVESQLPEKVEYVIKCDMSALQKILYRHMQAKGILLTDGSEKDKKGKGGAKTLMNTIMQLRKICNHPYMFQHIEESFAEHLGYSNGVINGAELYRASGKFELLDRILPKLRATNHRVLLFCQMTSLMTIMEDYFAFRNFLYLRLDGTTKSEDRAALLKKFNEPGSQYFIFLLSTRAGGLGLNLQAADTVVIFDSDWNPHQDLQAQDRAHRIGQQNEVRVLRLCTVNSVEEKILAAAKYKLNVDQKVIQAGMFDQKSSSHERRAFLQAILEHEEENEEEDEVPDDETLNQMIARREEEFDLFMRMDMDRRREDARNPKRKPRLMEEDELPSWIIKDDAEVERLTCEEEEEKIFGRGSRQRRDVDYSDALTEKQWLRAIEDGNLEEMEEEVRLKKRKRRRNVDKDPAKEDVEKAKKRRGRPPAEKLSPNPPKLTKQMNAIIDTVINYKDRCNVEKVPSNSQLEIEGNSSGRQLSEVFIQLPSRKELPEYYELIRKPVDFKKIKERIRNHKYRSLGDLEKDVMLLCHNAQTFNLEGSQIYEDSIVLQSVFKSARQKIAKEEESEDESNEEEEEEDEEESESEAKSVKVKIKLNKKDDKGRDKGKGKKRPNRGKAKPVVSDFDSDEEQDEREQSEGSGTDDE

Take `CC(C)(CN)c1cccc(C(=O)NCC(=O)Nc2nc(-c3cccc(-c4cc(CO)cc(C(F)(F)F)c4)c3)cs2)c1` [Compound 53, 3-(1-amino-2-methylpropan-2-yl)-N-(2-((4-(3′-(hydroxymethyl)-5′-(trifluoromethyl)-[1,1′-biphenyl]-3-yl)thiazol-2-yl)amino)-2-oxoethyl)benzamide]: on BRM, the “BRM Max % Inhibition” value was over 90% and the IC50 is 0.1 to 1 µM. For the same compound, on BRG-1, the IC50 is 1 to 5 µM and the Emax was over 70%.
The corresponding values for `Cc1cc(-c2cccc(-c3csc(NC(=O)CNC(=O)c4ccc5c(c4)[C@@](C)(C#N)CC5)n3)n2)ncn1` [Compound 266, (3S)-3-cyano-3-methyl-N-[2-[[4-[6-(6-methylpyrimidin-4-yl)-2-pyridyl]thiazol-2-yl]amino]-2-oxo-ethyl]indane-5-carboxamide] are over 60%, 1 to 5 µM, over 5 µM and over 30%.
In the same order, the values of `C[C@@H]1CN(c2cccc(-c3csc(NC(=O)CNC(=O)c4ccc5c(c4)C4(CCO5)COC4)n3)n2)C[C@H](C)O1` [Compound 381, N-(2-((4-(6-((cis)-2,6-dimethylmorpholino)pyridin-2-yl)thiazol-2-yl)amino)-2-oxoethyl)spiro[chromane-4,3′-oxetane]-6-carboxamide] are over 80%, 0.1 to 1 µM, over 5 µM and over 80%.
As to `C[C@@H]1CN(c2cc(F)cc(-c3csc(NC(=O)CNC(=O)c4ccc(Cl)c(C(C)(C)CO)c4)n3)c2)C[C@H](C)O1` [Compound 199, 4-chloro-N-[2-[[4-[3-[(cis)-2,6-dimethylmorpholin-4-yl]-5-fluoro-phenyl]thiazol-2-yl]amino]-2-oxo-ethyl]-3-(2-hydroxy-1,1-dimethyl-ethyl)benzamide], on BRM, the “BRM Max % Inhibition” value was over 95% and the IC50 is under 0.1 µM. Also, at BRG-1, the IC50 was under 0.1 µM and the Emax was over 95%.
For `Cc1ccc(C(=O)NCC(=O)Nc2nc(-c3cccc(-c4ccn(C)n4)c3)cs2)cc1C(C)(C)CN` [Compound 70, 3-(1-amino-2-methylpropan-2-yl)-4-methyl-N-(2-((4-(3-(1-methyl-1H-pyrazol-3-yl)phenyl)thiazol-2-yl)amino)-2-oxoethyl)benzamide], on BRM, the “BRM Max % Inhibition” value was over 95% and the IC50 lay within 0.1 to 1 µM. On BRG-1, the IC50 is over 5 µM and the Emax is over 50%.
As for `CC1(CO)CCc2ccc(C(=O)NCC(=O)Nc3nc(-c4cccc(-c5ccncc5)c4)cs3)cc21` (single isomer, unassigned) [Compound 107], at BRM, the “BRM Max % Inhibition” value is over 90% and the IC50 is 0.1 to 1 µM. Besides, on BRG-1, the “BRG1 Max % Inhibition” value is reported as over 70% and the IC50 was in the range of 0.1 to 1 µM.
In the case of `Cc1cc(-c2cccc(-c3csc(NC(=O)CNC(=O)c4ccc5c(c4)[C@](C)(C#N)CC5)n3)n2)ncn1` [Compound 267, (3R)-3-cyano-3-methyl-N-[2-[[4-[6-(6-methylpyrimidin-4-yl)-2-pyridyl]thiazol-2-yl]amino]-2-oxo-ethyl]indane-5-carboxamide], at BRM, the “BRM Max % Inhibition” value is recorded as over 95% and the IC50 was under 0.1 µM. Besides, at BRG-1, the IC50 is under 0.1 µM and the Emax was over 95%.
With `CC(C)(CN)c1cccc(C(=O)NCC(=O)Nc2nc(-c3cccc(-c4ccncc4)c3)cs2)c1` [Compound 64, 3-(1-amino-2-methylpropan-2-yl)-N-(2-oxo-2-((4-(3-(pyridin-4-yl)phenyl)thiazol-2-yl)amino)ethyl)benzamide], at BRM, the “BRM Max % Inhibition” value is recorded as over 95% and the IC50 lay within 0.1 to 1 µM. At BRG-1, the IC50 is 1 to 5 µM and the Emax is over 80%.
Take `Cc1nccc(-c2cccc(-c3csc(NC(=O)CNC(=O)c4cccc(C(C)(C)CN)c4)n3)c2)n1` [Compound 95]: at BRM, the “BRM Max % Inhibition” value is over 95% and the IC50 is under 0.1 µM. Besides, at BRG-1, the IC50 is 0.1 to 1 µM and the Emax was over 90%.
In the same order, the values of `C[C@]1(CO)CCc2ccc(C(=O)NCC(=O)Nc3nc(-c4cccc(-c5cnccn5)n4)cs3)cc21` [Compound 169, (S)-3-(hydroxymethyl)-3-methyl-N-(2-oxo-2-((4-(6-(pyrazin-2-yl)pyridin-2-yl)thiazol-2-yl)amino)ethyl)-2,3-dihydro-1H-indene-5-carboxamide] are over 80%, 0.1 to 1 µM, over 5 µM and over 50%.
Turning to `C[C@@H]1CN(c2cccc(-c3csc(NC(=O)CNC(=O)c4ccc5c(c4)[C@@H](CO)CC5)n3)n2)C[C@H](C)O1` [Compound 161, (3S)-N-[2-[[4-[6-[(cis)-2,6-dimethylmorpholin-4-yl]-2-pyridyl]thiazol-2-yl]amino]-2-oxo-ethyl]-3-(hydroxymethyl)indane-5-carboxamide], on BRM, the “BRM Max % Inhibition” value was over 95% and the IC50 is under 0.1 µM. Moreover, at BRG-1, the IC50 lay within 0.1 to 1 µM and the Emax was over 80%.
In the same order, the values of `O=C(CNC(=O)c1ccc2c(c1)C1(CCNC1=O)CC2)Nc1nc(-c2cccc(-c3ccncc3)c2)cs1` (stereo not shown) [Compound 108] are over 95%, 0.1 to 1 µM, 1 to 5 µM and over 80%.
The corresponding values for `Cc1nccc(-c2cccc(-c3csc(NC(=O)CNC(=O)c4ccc5c(c4)[C@@](C)(CO)CC5)n3)n2)n1` [Compound 214] are over 90%, 0.1 to 1 µM, 0.1 to 1 µM and over 80%.
Consider `C[C@@H]1CN(c2cccc(-c3csc(NC(=O)CNC(=O)c4cnc5c(c4)[C@](C)(C#N)CC5)n3)c2)C[C@H](C)O1` [Compound 170, (R)-5-cyano-N-(2-((4-(3-((cis)-2,6-dimethylmorpholino)phenyl)thiazol-2-yl)amino)-2-oxoethyl)-5-methyl-6,7-dihydro-5H-cyclopenta[b]pyridine-3-carboxamide], for which, on BRM, the “BRM Max % Inhibition” value was over 95% and the IC50 is under 0.1 µM. Further, at BRG-1, the IC50 was under 0.1 µM and the Emax was over 95%.
In the case of `C[C@@H]1CN(c2cccc(-c3csc(NC(=O)CNC(=O)c4cc(C(C)(C)C)ccn4)n3)c2)C[C@H](C)O1` [Compound 202, 4-tert-butyl-N-[2-[[4-[3-[(cis)-2,6-dimethylmorpholin-4-yl]phenyl]thiazol-2-yl]amino]-2-oxo-ethyl]pyridine-2-carboxamide], at BRM, the “BRM Max % Inhibition” value is over 90% and the IC50 was in the range of 0.1 to 1 µM. Besides, at BRG-1, the IC50 fell in the range of 1 to 5 µM and the Emax was over 80%.
In the same order, the values of `C[C@@H]1CN(c2cccc(-c3csc(NC(=O)CNC(=O)c4ccc(Cl)c(C(C)(C)CO)c4)n3)c2)C[C@H](C)O1` [Compound 244, 4-chloro-N-[2-[[4-[3-[(cis)-2,6-dimethylmorpholin-4-yl]phenyl]thiazol-2-yl]amino]-2-oxo-ethyl]-3-(2-hydroxy-1,1-dimethyl-ethyl)benzamide] are over 95%, under 0.1 µM, 0.1 to 1 µM and over 95%.
In the same order, the values of `C[C@@H]1CN(c2cccc(-c3csc(NC(=O)CNC(=O)c4ccc5c(c4)C(C)(CO)COC5)n3)c2)C[C@H](C)O1` (stereo in doubt) [Compound 372, (R)-N-(2-((4-(3-((cis)-2,6-dimethylmorpholino)phenyl)thiazol-2-yl)amino)-2-oxoethyl)-4-(hydroxymethyl)-4-methylisochromane-6-carboxamide] are over 95%, under 0.1 µM, 0.1 to 1 µM and over 95%.
In the same order, the values of `C[C@@H]1CN(c2cccc(-c3csc(NC(=O)CNC(=O)c4cccc([C@]5(F)C[C@H](F)C5)c4)n3)n2)C[C@H](C)O1` [Compound 358, 3-((1R,3R)-1,3-difluorocyclobutyl)-N-(2-((4-(6-((cis)-2,6-dimethylmorpholino)pyridin-2-yl)thiazol-2-yl)amino)-2-oxoethyl)benzamide] are over 95%, under 0.1 µM, 0.1 to 1 µM and over 95%.
Consider `C[C@@H]1CN(c2cccc(-c3csc(NC(=O)CNC(=O)c4ccc5c(c4)[C@@](C)(CO)CCO5)n3)c2)C[C@H](C)O1` [Compound 166, (S)-N-(2-((4-(3-((cis)-2,6-dimethylmorpholino)phenyl)thiazol-2-yl)amino)-2-oxoethyl)-4-(hydroxymethyl)-4-methylchroman-6-carboxamide], for which, at BRM, the “BRM Max % Inhibition” value is reported as over 95% and the IC50 lay within 0.1 to 1 µM. Besides, at BRG-1, the IC50 is over 5 µM and the Emax is over 50%.
Regarding `C[C@@]1(C#N)COCc2ccc(C(=O)NCC(=O)Nc3nc(-c4cccc(C5CCO5)c4)cs3)cc21` (stereo partly shown) [Compound 365], at BRM, the “BRM Max % Inhibition” value is listed as over 95% and the IC50 was under 0.1 µM. Besides, at BRG-1, the “BRG1 Max % Inhibition” value is reported as over 95% and the IC50 was in the range of 0.1 to 1 µM.
Regarding `CC(C)S(=O)(=O)c1cccc(C(=O)NCC(=O)Nc2nc(-c3cccc(-c4cccnc4)c3)cs2)c1` [Compound 39, 3-isopropylsulfonyl-N-[2-oxo-2-[[4-[3-(3-pyridyl)phenyl]thiazol-2-yl]amino]ethyl]benzamide], on BRM, the “BRM Max % Inhibition” value is given as over 95% and the IC50 was 0.1 to 1 µM. Also, on BRG-1, the IC50 lay in the range of 1 to 5 µM and the Emax was over 90%.
In the same order, the values of `C[C@@H]1CN(c2cccc(-c3csc(NC(=O)CNC(=O)c4cccc(C5(F)COC5)c4)n3)c2)C[C@H](C)O1` [Compound 183, N-(2-((4-(3-((cis)-2,6-dimethylmorpholino)phenyl)thiazol-2-yl)amino)-2-oxoethyl)-3-(3-fluorooxetan-3-yl)benzamide] are over 90%, 0.1 to 1 µM, 1 to 5 µM and over 70%.

What is called IC50 is the concentration that inhibits the measured activity by half.
